Measurements published in patent US20260042764A1, “COMPOSITIONS AND METHODS FOR INHIBITION OF KRAS” (TheRas, Inc., priority 2022, published 2026).

How the values were obtained:
[1] = target: T1, Avi-KRAS G12D (1-169) GppNHp/RAF1 RBD-3xFLAG (52-151) (Homo sapiens, UniProt P01116, G12D); experiment: Raf1-KRAS G12D-GppNHP disruption HTRF assay (Biological Example 1); type: binding; details: KRAS G12D, GppNHp-loaded
T1 construct: Avi-KRAS G12D (1-169)
Method: (§1) A protein:protein interaction (PPI) Homogeneous Time Resolved Fluorescence (HTRF) assay was used to determine the effectiveness of compounds of the present disclosure in disrupting KRAS protein and effector RAF1 binding.
(§2) The assay buffer included: 50 mM Tris pH 7.5, 100 mM NaCl, 5 mM MgCl2, 0.1% BSA, 0.01% Tween, and 10% DMSO. The bead buffer included: 50 mM Tris pH 7.5, and 0.01% Tween 20. Assay volume of 20 μL was used in a 384 well plate-low volume format.
(§3) The HTRF assay employed the following protocol:
(§4) Protein mix was prepared in assay buffer, and dispensed on plates, 10 μL per well, then incubated for 1 h at room temperature, with 700 rpm shaking, Reagents mix was prepared and dispensed on plates, 10 μL per well, then incubated for 1 h at room temperature, with 700 rpm shaking.
(§5) Data was reported as percentage of activity, with DMSO as 100%. Data was plotted and analyzed using Prism 8.

GP2d cells (KRAS G12D) = experiment: Cell-based pERK HTRF assay in GP2d cell (Biological Example 2); details: GP2d (KRAS G12D) cells
Method: A pERK assay (Perkin Elmer) was used to determine the effectiveness of compounds in disrupting KRAS G12D protein/effector signaling in cells.
On Day 1, cells (GP2d) were seeded into 96-well plates at 3×10^4 cells/well in 80 μL complete growth media (DMEM, 10% FBS).
(§6) On Day 2, cells were treated with compounds at 0.25% DMSO. The source plate was created with compounds diluted in media at 5-fold the final assay concentration. The compounds were run in a 9-point concentration curve starting at 1 μM or in a 9-point concentration curve starting at 100 nM, with a half-log dilution between concentrations. Twenty μL was transferred onto the cell plates (final volume in wells was 100 μL). Plates were harvested after 60 min incubation by aspirating media and adding kit-supplied 1x supplemented lysis buffer to all wells (50 μL per well). Plates were then placed on a plate shaker and incubated at 850 rpm for an additional 30 min.
Antibody mixture solution was prepared by diluting aliquoted d2 and Eu Cryptate antibodies 1:20 in kit supplied detection buffer, and mixing the diluted antibodies solutions (1:1 v:v).
(§7) Samples were homogenized by pipetting up and down and then transferred (16 μL of cell lysates) from the 96-well cell culture plate to two wells of the HTRF 384-well detection plate containing the antibody solution. Plates were centrifuged (524 g for 1 min) and allowed to incubate between 4 and 24 h at room temperature. Maximum signal is reached after 4 h incubation time and remains stable over a period of 24 hours. Therefore, readings can be made between 4 and 24 h of incubation. Plates were centrifuged again (524 g for Imin), then analyzed on the EnVision plate reader using the following settings: Excitation 320 nm, Bandwidth 75 nm; Emission 615 nm, Bandwidth 85 nm; Gain 100%; Flashes 100; Lag 60 μs.

SW620 cells (KRAS G12V) = experiment: Cell-based pERK HTRF assay in SW620 cell (Biological Example 4)
Method: A pERK assay (Perkin Elmer) was used to determine the effectiveness of compounds in disrupting KRAS G12V protein/effector signaling in cells.
On Day 1, cells (SW620) were seeded into 96-well plates at 3×10^4 cells/well in 80 μL complete growth media (RPMI, 10% FBS).
as §6, with “μM,” for “μM or in a 9-point concentration curve starting at 100 nM,”, “4 h” for “60 min”
Antibody mixture solution was prepared by diluting aliquoted d2 and Eu Cryptate antibodies 1:20 in kit supplied detection buffer and mixing the diluted antibodies solutions (1:1 v:v).
as §7, with “Imin)” for “1 min)”, “Maximum signal is reached after 4 h incubation time and remains stable over a period of 24 hours. Therefore, readings can be made between 4 and 24 h of incubation.” left out, “1 min),” for “Imin),”, “En Vision” for “EnVision”

[2] = target: T2, Avi-KRAS G12V (1-169) GppNHp/RAF1 RBD-3xFLAG (52-151) (Homo sapiens, UniProt P01116, G12V); experiment: Raf1-KRAS G12V-GppNHP disruption HTRF assay (Biological Example 1); type: binding; details: KRAS G12V, GppNHp-loaded; Table 11
T2 construct: Avi-KRAS G12V (1-169)
T2 sequence (P01116 1-169 isoform P01116-2 G12V): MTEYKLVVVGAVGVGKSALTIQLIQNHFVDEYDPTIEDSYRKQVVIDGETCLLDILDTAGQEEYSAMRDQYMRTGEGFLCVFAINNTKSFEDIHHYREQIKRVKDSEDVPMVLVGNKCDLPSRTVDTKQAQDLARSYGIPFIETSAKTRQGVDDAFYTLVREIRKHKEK
Method: as §1, §2, §3, §4, §5

[3] = target: T3, Avi-KRAS WT (1-169) GppNHp/RAF1 RBD-3xFLAG (52-151) (Homo sapiens, UniProt P01116); experiment: Raf1-KRAS WT-GppNHP disruption HTRF assay (Biological Example 1); type: binding; details: KRAS WT, GppNHp-loaded; Table 11
T3 construct: Avi-KRAS WT (1-169)
T3 sequence (P01116 1-169 isoform P01116-2): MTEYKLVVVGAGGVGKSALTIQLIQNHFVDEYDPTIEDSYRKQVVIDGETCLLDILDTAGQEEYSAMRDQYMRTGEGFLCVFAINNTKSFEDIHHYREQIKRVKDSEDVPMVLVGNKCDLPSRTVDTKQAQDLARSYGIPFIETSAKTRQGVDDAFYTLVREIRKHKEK
Method: as §1, §2, §3, §4, §5

[4] = SW620 (KRAS G12V) cells, pERK HTRF, class symbols

T1 sequence (P01116 1-169 isoform P01116-2 G12D): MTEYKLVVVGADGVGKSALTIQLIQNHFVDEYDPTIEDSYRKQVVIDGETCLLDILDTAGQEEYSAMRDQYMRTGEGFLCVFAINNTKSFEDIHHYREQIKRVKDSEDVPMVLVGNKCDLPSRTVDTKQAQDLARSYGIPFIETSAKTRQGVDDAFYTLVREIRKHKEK

Structure (SMILES)	IC50 ([1]; Table 11)	IC50 [2]	IC50 [3]	IC50 (GP2d cells (KRAS G12D); GP2d, pERK HTRF)	also measured
CCN(c1nc(OC[C@@]23CCCN2C[C@H](F)C3)nc2c(F)c(-c3ccc(F)c4sc(N)c(C#N)c34)c(C(F)(F)F)cc12)[C@H]1C[C@H](C)N(C(=O)[C@@H](C)OC)C1 (atropisomer, axis not shown) [Compound 763]	–	–	–	–	IC50 ([1]; class symbols): 0.1 to 1 µM; IC50 (GP2d cells (KRAS G12D); pERK HTRF, class symbols): < 0.1 µM; IC50 (SW620 cells (KRAS G12V); [4]): < 0.1 µM
Nc1nc2c(-c3c(C(F)(F)F)cc4c(N[C@H]5C[C@@H](O)C5)nc(OCC56CCCN5CCC6)nc4c3F)ccc(F)c2s1 (atropisomer, axis not shown) [Compound 9]	1 to 10 µM	> 10 µM	1 to 10 µM	–	–
CO[C@@H]1C[C@@H](COc2nc(N(C)C3CC(O)C3)c3cc(C(F)(F)F)c(-c4ccc(F)c5sc(N)nc45)c(F)c3n2)N(C)C1 (stereo partly drawn) [Compound 17]	–	–	–	> 1 µM	–
CCC(=O)N1C2CCC1CN(c1nc(OC[C@@]34CCCN3C[C@H](F)C4)nc3c(F)c(-c4ccc(F)c5sc(N)nc45)c(C(F)(F)F)cc13)C2 [Compound 97]	> 10 µM	> 10 µM	> 10 µM	–	–
CN(c1nc(OCC23CCCN2CCC3)nc2c(F)c(-c3ccc(F)c4sc(N)nc34)c(C(F)(F)F)cc12)[C@H]1C[C@H](O)C1 (atropisomer, axis not shown) [Compound 3]	1 to 10 µM	1 to 10 µM	1 to 10 µM	–	–
CN(c1nc(OCC2(CN3CCOCC3)CC2)nc2c(F)c(-c3ccc(F)c4sc(N)nc34)c(C(F)(F)F)cc12)C1CC(O)C1 (stereo not drawn) [Compound 16]	–	–	–	> 1 µM	–
CCN(c1nc(OC[C@@]23CCCN2C[C@H](F)C3)nc2c(F)c(-c3ccc(F)c4sc(N)c(C#N)c34)c(C(F)(F)F)cc12)C1CC(C(=O)N(C)C)C1 (stereo partly drawn) [Compound 950]	–	–	–	–	IC50 (GP2d cells (KRAS G12D); GP2d): < 0.1 µM; IC50 (SW620 cells (KRAS G12V); Homo sapiens, SW-620, SW620 (KRAS G12V) cells): < 0.1 µM
CN(c1nc(OC[C@@]23CCCN2C[C@H](F)C3)nc2c(F)c(-c3ccc(F)c4sc(N)c(C#N)c34)c(C(F)(F)F)cc12)C1(CC#N)CC(O)C1 (stereo partly drawn) [Compound 249]	–	–	–	0.1 to 1 µM	IC50 (SW620 cells (KRAS G12V); SW620 (KRAS G12V) cells, pERK HTRF): 0.1 to 1 µM
Nc1nc2c(-c3c(C(F)(F)F)cc4c(N5CCCC(CO)C5)nc(OCC56CCCN5CCC6)nc4c3F)ccc(F)c2s1 (stereo not drawn) [Compound 54]	1 to 10 µM	> 10 µM	> 10 µM	–	–
CN(c1nc(OCC23CCCN2CCC3)nc2c(F)c(-c3ccc(F)c4sc(N)nc34)c(-c3ccoc3)cc12)[C@H]1C[C@@H](O)C1 [Compound 6]	1 to 10 µM	> 10 µM	1 to 10 µM	–	–
CN(c1nc(OC[C@@]23CCCN2C[C@H](F)C3)nc2c(F)c(-c3ccc(F)c4sc(N)nc34)c(C(F)(F)F)cc12)C1CC(O)C1 (stereo partly drawn) [Compound 8]	–	–	–	0.1 to 1 µM	–
CN(c1nc(OCC23CCCN2CCC3)nc2c(F)c(-c3ccc(F)c4sc(N)nc34)c(C(F)(F)F)cc12)[C@H]1C[C@@H](O)C1 (atropisomer, axis not shown) [Compound 2]	0.1 to 1 µM	1 to 10 µM	0.1 to 1 µM	–	–
CO[C@H]1CN2CCC[C@]2(COc2nc(N(C)C3CC(O)C3)c3cc(C(F)(F)F)c(-c4ccc(F)c5sc(N)nc45)c(F)c3n2)C1 (stereo partly drawn) [Compound 14]	–	–	–	> 1 µM	–
CN1C[C@H](F)C[C@H]1COc1nc(N(C)[C@H]2C[C@@H](O)C2)c2cc(C(F)(F)F)c(-c3ccc(F)c4sc(N)nc34)c(F)c2n1 (atropisomer, axis not shown) [Compound 12]	> 10 µM	> 10 µM	1 to 10 µM	–	–
CN(c1nc(OC[C@@]23CCCN2C[C@H](F)C3)nc2c(F)c(-c3ccc(F)c4sc(N)c(C#N)c34)c(C(F)(F)F)cc12)[C@@H]1CCN(C(=O)CC#N)C1 (atropisomer, axis not shown) [Compound 102]	0.1 to 1 µM	–	–	–	IC50 (GP2d cells (KRAS G12D); pERK HTRF): < 0.1 µM
CN(c1nc(OCC23CCCN2CCC3)nc2c(F)c(-c3ccc(F)c4sc(N)nc34)c(C(F)(F)F)cc12)C1CC(O)C1 (stereo not drawn) [Compound 2]	–	–	–	> 1 µM	–
Nc1nc2c(-c3c(C(F)(F)F)cc4c(N5CCC(O)CC5)nc(OCC56CCCN5CCC6)nc4c3F)ccc(F)c2s1 [Compound 51]	1 to 10 µM	> 10 µM	1 to 10 µM	–	–
CCN(CCCO)c1nc(OC[C@@]23CCCN2C[C@H](F)C3)nc2c(F)c(-c3ccc(F)c4sc(N)c(C#N)c34)c(C(F)(F)F)cc12 [Compound 75]	0.1 to 1 µM	–	–	–	IC50 (GP2d cells (KRAS G12D); pERK HTRF): < 0.1 µM
Nc1nc2c(-c3c(C(F)(F)F)cc4c(N[C@H]5CC[C@H](O)C5)nc(OCC56CCCN5CCC6)nc4c3F)ccc(F)c2s1 (atropisomer, axis not shown) [Compound 61]	1 to 10 µM	> 10 µM	1 to 10 µM	–	–
CN(c1nc(OCC23CCCN2CCC3)nc2c(F)c(-c3ccc(F)c4sc(N)nc34)c(C(F)(F)F)cc12)[C@H]1C[C@H](CO)C1 (atropisomer, axis not shown) [Compound 1]	1 to 10 µM	> 10 µM	1 to 10 µM	–	–
CN(c1nc(OCC23CCCN2CCC3)nc2c(F)c(-c3ccc(F)c4sc(N)nc34)c(C(F)(F)F)cc12)C1CC(O)C12CCCC2 (single isomer, unassigned) [Compound 11]	> 10 µM	–	–	–	–
Nc1nc2c(-c3c(C(F)(F)F)cc4c(N[C@H]5CC[C@@H](O)C5)nc(OCC56CCCN5CCC6)nc4c3F)ccc(F)c2s1 (atropisomer, axis not shown) [Compound 60]	1 to 10 µM	> 10 µM	1 to 10 µM	–	–
CO[C@H]1CN2CCC[C@@]2(COc2nc(N(C)C3CC(O)C3)c3cc(C(F)(F)F)c(-c4ccc(F)c5sc(N)nc45)c(F)c3n2)C1 (stereo partly drawn) [Compound 13]	–	–	–	> 1 µM	–
CN(c1nc(OC[C@@H]2C[C@@H](F)CN2C)nc2c(F)c(-c3ccc(F)c4sc(N)nc34)c(C(F)(F)F)cc12)C1CC(O)C1 (stereo partly drawn) [Compound 12]	–	–	–	> 1 µM	–
CN(c1nc(OCC2(CN3CCOCC3)CC2)nc2c(F)c(-c3ccc(F)c4sc(N)c(C#N)c34)c(C(F)(F)F)cc12)C1CC(O)C1 (stereo not drawn) [Compound 122]	–	–	–	< 0.1 µM	–
CN(c1nc(OC[C@@]23CCCN2C[C@H](F)C3)nc2c(F)c(-c3ccc(F)c4sc(N)c(C#N)c34)c(C(F)(F)F)cc12)C1CC(F)C1 (stereo partly drawn) [Compound 160]	–	–	–	< 0.1 µM	–
CCN(c1nc(OC[C@@]23CCCN2C[C@H](F)C3)nc2c(F)c(-c3ccc(F)c4sc(N)c(C#N)c34)c(C(F)(F)F)cc12)[C@H]1CCN(C(=O)OC2CC(OC)C2)C1 (stereo partly drawn) [Compound 792]	–	–	–	–	IC50 ([1]; class symbols): < 0.1 µM; IC50 (GP2d cells (KRAS G12D); pERK HTRF, class symbols): < 0.1 µM; IC50 (SW620 cells (KRAS G12V); [4]): < 0.1 µM
